# Source: patent US5534492A, “Muramyl peptide for the treatment of toxicity” (Peptech (UK) Limited, priority 1992, dated 1996)
# How the values were obtained:
# Pyrogenicity = assay: Pyrogenicity
# Text: Pyrogenicity is a problem which has caused difficulties for the exploitation of certain muramyl dipeptides. Pyrogenicity may be attenuated by appropriate formulations (see, for example, the liposomal formulations of U.S. Pat. Nos. 4,522,811 and 4,684,625), but in general it will be preferable to choose, for use in the present invention, a muramyl dipeptide which has low intrinsic pyrogenicity. […] Such an analogue is available, and is N-acetyl-glucosaminyl-N-acetyl-muramyl-L-alanyl-D-glutamic acid (GMDP-A), which is Compound III in U.S. Pat. No. 4,395,399, and whose structure is as follows: [drawing 5]
# [1] = test system: cells of the reticulo-endothelial system; conditions: cited from earlier work
# [2] = test system: liver microsomal cytochrome P450; assay: Optical difference spectrum with liver microsomal cytochrome P450; assay type: binding; conditions: oxidised microsomes from phenobarbital-induced rat liver
# Text: The cytochrome P450 system is a system by means of which toxins are metabolised in the liver. A wide variety of substances combine with oxidised liver microsomal cytochrome P450 bringing about a change in absorbency. It has been shown that various drugs, substrates and inhibitors react with microsomal cytochrome P450 to give three characteristic types of spectral change.
# The three types of spectral changes are as follows.
# i) For substances such as ethylmorphine or hexobarbital, the minimum difference in the spectrum occurs at about 420 nm and the maximum at about 385-390 nm. These substances are designated type I compounds).
# ii) For compounds such as aniline or nicotinamide, the minimum difference in the spectrum occurs at about 390-410 nm and the maximum at about 430 nm. These substances are designated type II compounds.
# iii) Some compounds are apparently type II substrates but actually act by displacing endogenous type I substrates when added to microsomes. These compounds are designated reverse type I substrates.
# It has been shown that, for a number of substrates, the apparent binding constants calculated from spectral changes are related to the actual binding of type I substrates at the active site.
# Ks (spectral association constant) was 0.1 mM. This is Ks for the well known cytochrome P450 HEXENAL™.
# [3] = Placebo-controlled trial in colorectal surgery patients, blood bilirubin; assay type: in vivo, human; conditions: GMDP 1, 2 or 3 mg per day for 10 days
# Text: Over 200 patients were enrolled in a placebo-controlled trial to determine the effect of GMDP on the outcome of colorectal surgery. Many of these patients had undergone previous chemotherapy for the treatment of cancers, often over substantial periods of time, with the result that liver damage had occurred.
# This was evidenced by such indicators as elevated bilirubin in their blood, resulting from the reduced ability of the liver to function as a detoxification organ. […] GMDP or placebo were administered for 10 days, and bilirubin levels in the blood were measured before and after the course of treatment. Bilirubin data were obtained from 182 of the subjects. It is clear that the average blood level of bilirubin decreased in the GMDP-treated group and the two asterisks indicate that this decrease was statistically highly significant (p=0.002). […] Blood levels of bilirubin before the trial were not different in the two groups.
# outbred white mice = assay: Duration of ethanol narcosis in outbred white mice; assay type: in vivo; conditions: GMDP at least 0.01 mg/kg IP, three daily injections; ethanol 4.5 g/kg IP; vs control
# Text: (§1) Outbred white mice were given three intraperitoneal injections of GMDP at daily intervals and challenged with ethanol (4.5 g/kg IP) after the last GMDP injection. Narcosis was defined as the time in the lateral position ("leglessness"). […] Each group contained 10 to 12 mice.
# In this example, the influence of GMDPA and various GMDP or GMDPA analogues on ethanol narcosis was studied. The procedure of Example 1 was followed, except that instead of the GMDP, one of the following compounds was administered IP at 1 mg/kg daily for three days: […]
# [4] = test system: mice liver cytochrome P-450 system; assay: Indices of activity of mice liver cytochrome P-450 system after GMDP injections; assay type: in vivo
# Description: The experiments were performed on white male mice with a mass of […]. GMDP was dissolved in isotonic solution of sodium chloride and administered by means of intraperitoneal injection once a day for 3 days, with a dose of 20 mg/kg. A corresponding volume of the solvent was administered to control animals. Each group (test and control) consisted of 8 to 10 mice. Twenty-four hours after the last injection of the substances under test (test) and the solvent (control), the animals were killed, the liver was removed and its weight was determined. This was followed by the isolation of the microsomal fraction by means of differential centrifugation. The quality protein in it was determined according to the method of Lowry et al (Lowry et al, J. Biol. Chem., 193, 265-275 (1951)). Bovine serum albumin was used in the construction of calibrating plot. The content of cytochrome P450 and B5 in the liver microsomal fraction was determined by spectrophotometric method with the help of a `Hitachi-556` spectrophotometer. The rate of oxidation of aniline (p-hydroxylation) in microsomes in the presence of NADPH was determined spectrophotometrically on the basis of p-aminophenol which has formed already. The rate of oxidation of benzo(a)pyrene (BP) in liver microsomes was determined according to the intensity of fluorescence of the forming 3-oxibenzo (a) pyrene `Baird Nova` fluorimeter. The rate of hydroxylation of aniline and BP in microsomes was expressed in nmol of metabolites/nmol of cytochrome P450 per 1 minute, or in nmol of metabolites/mg of microsome protein per 1 minute. Statistical processing of the obtained data was performed with the use of Student's t-test.
# Water solubility = assay type: physicochemical
# Text: GMDP also has the particular advantage, shared with the other glucosaminyl-muramyl peptides of U.S. Pat. No. 4,395,399, of being water soluble: this is a real benefit for parenteral administration. The choice of this muramyl dipeptide which in many ways is contrary to the trend in the art. Both muroctasin and MTP-PE have been specifically synthesised to incorporate a lipophilic group, and many non-lipophile-substituted muramyl dipeptides have been formulated in lipophilic preparations such as liposomes (as in U.S. Pat. No. 4,522,811 and U.S. Pat. No. 4,684,625), purportedly to enhance the activity of the muramyl dipeptide. In the present invention, water solubility is preferred.
# outbred mice = assay: Duration of acetaldehyde narcosis in outbred mice; assay type: in vivo; conditions: GMDP IP, three daily injections; acetaldehyde 450 mg/kg IP
# Description: as §1
# The procedure of Example 1 was followed but modified to study the duration of acetaldehyde narcosis. Acetaldehyde, at 450 mg/kg was administered IP after the last GMDP dose, instead of the ethanol.
# C57BL/6 mice = assay: Duration of hexenal narcosis in C57BL/6 mice; assay type: in vivo
# Text: Cytochrome P450 -dependent monooxygenase activity induction in accordance with pharmacological testing of HEXENAL™ narcosis duration in mice.
# In addition to the experiments, which have shown GMDP ability to interact directly with cytochrome P450 molecule as a substrate (in vitro) and to induce cytochrome P450 system in liver microsomes (GMDP effect in vivo), experiments for testing cytochrome P450 system according to the duration of HEXENAL™ narcosis in mice have been carried out. It is well known that HEXENAL™ is a substrate of cytochrome P450, and the duration of its narcotic effect clearly correlates with the rate of its oxidation in the liver cytochrome P450 system. The method of Example 6 was repeated, but instead of aniline and benzo(a)pyrene, the ability of the microsomes to metabolise HEXENAL™ was tested. The experiments performed have shown that GMDP in small doses is capable of inducing cytochrome P450 -dependent oxidation of HEXENAL™ (Tables 3 and 4).
# mice [5] = assay: Acute toxicity, LD50 test in mice; assay type: in vivo
# Text: This compound (Compound II in U.S. Pat. No. 4,395,399), also known as glycopin, has already undergone preclinical toxicity testing and pharmacokinetic investigations required for licensing for clinical use in the USSR. The acute toxicity in mice, measured by the LD50 test is 7 g/kg.
# mice [6] = assay: Duration of HEXENAL (hexobarbital) narcosis in mice, oral GMDP; assay type: in vivo; conditions: for Effect % (M ± m): vs control
# Description: This example studies the effect of GMDP on the duration of narcosis induced by hexobarbital.
# GMDP was administered orally to mice 15 minutes before the intraperitoneal injection of hexobarbital (HEXENAL™) at 50 mg/kg. The duration of narcosis (preservation of the lateral position) was recorded.
# inbred C57 B1/6 mice = assay: Acetaldehyde narcosis in inbred C57 B1/6 mice; assay type: in vivo; conditions: GMDPA IP daily for three days
# Description: as §1
# This example studies the influence of GMDPA on acetaldehyde narcosis in inbred C57 B1/6 mice. The procedure of Example 1 was generally followed except that GMDPA was injected IP daily for three days and acetaldehyde was given 1, 4, 8 or 12 days later.
# [7] = 24 hours after GMDP 20 mg/kg × 3 days i.p.
# [8] = GMDP relative to control, 20 mg/kg × 3 days
# [9] = liver microsomes, 24 hours after GMDP 20 mg/kg × 3 days i.p.
# [10] = GMDP 0.01 mg/kg × 3 days i.p, hexenal 50 mg/kg 24 hours after GMDP injections
# [11] = GMDP i.p injection simultaneously with hexenal injection, 50 mg/kg
# [12] = GMDP i.p. injection 10 min after hexenal injection, 50 mg/kg
# [13] = GMDP i.p. injection 30 min before hexenal injection, 50 mg/kg
# [14] = GMDP i.p. injection 60 min before hexenal injection, 50 mg/kg
# [15] = GMDP per os 15 min before i.p injection of hexenal 50 mg/kg
# [16] = GMDP 0.01 mg/kg orally 15 min before hexobarbital 50 mg/kg i.p.
# [17] = GMDP 0.1 mg/kg orally 15 min before hexobarbital 50 mg/kg i.p.
# [18] = GMDP 1.0 mg/kg orally 15 min before hexobarbital 50 mg/kg i.p.
compound,measurement,setting,value
"CC(=O)N[C@H]1[C@H](O[C@H]2[C@H](O[C@H](C)C(=O)N[C@@H](C)C(=O)N[C@H](CCC(=O)O)C(N)=O)[C@@H](NC(C)=O)C(O)O[C@@H]2CO)O[C@H](CO)[C@@H](O)[C@@H]1O (stereo partly drawn) [GMDP, N-acetyl-glucosaminyl-N-acetyl-muramyl-L-alanyl-D-isoglutamine]",pyrogenicity,Pyrogenicity,sufficiently low not to have prevented its clinical evaluation
same,synthesis of the superoxide anion (O2^-),[1],stimulates the synthesis of the superoxide anion
same,Ks (spectral association constant),[2],0.1 mM
same,type of optical difference spectrum,[2],type I optical difference spectrum
same,blood level of bilirubin after treatment vs placebo,[3],significantly different from bilirubin levels after placebo treatment
same,"average blood level of bilirubin, after vs before treatment",[3]; p=0.002,decreased
same,duration of ethanol narcosis,outbred white mice,much shorter duration
same,Liver weight mg/g of the animal weight,[4]; [7],80.0 mg/g of the animal weight
same,Microsomal protein mg/g of liver weight,[4]; [7],5.8 ± 0.31 mg/g of liver weight
same,"Aniline-hydroxylase (per mg of protein), %",[4]; [8],194%
same,"Aniline-hydroxylase (per nmol of cyt. P-450), %",[4]; [8],178%
same,"BP-hydroxylase (per mg of protein), %",[4]; [8],171%
same,"BP-hydroxylase (per nmol of cyt P-450), %",[4]; [8],218%
same,"Cytochrome P-450, %",[4]; [8],134%
same,"Microsomal protein, %",[4]; [8],129%
same,Cytochrome P-450 nmol/mg of protein,"[4]; liver microsomal fraction, 24 hours after GMDP 20 mg/kg × 3 days i.p.",0.87 ± 0.06 nmol/mg of protein
same,Aniline-hydroxylase nmol/mg of protein per 1 minute,[4]; [9],1.20 ± 0.1 nmol/mg of protein per 1 minut
same,Aniline-hydroxylase nmol/nmol of cyt. P-450 per 1 minute,[4]; [9],1.05 ± 0.01 nmol/nmol of cyt. P-450 per 1
same,BP-hydroxylase nmol/mg of protein per 1 minute,[4]; [9],0.6 ± 0.04 nmol/mg of protein per 1 minut
same,BP-hydroxylase nmol/nmol of cyt P-450 per 1 minute,[4]; [9],0.87 ± 0.09 nmol/nmol of cyt P-450 per 1 m
same,water solubility,Water solubility,water soluble
same,duration of acetaldehyde narcosis,outbred mice,markedly shortened the duration of narcosis
same,Narcosis duration min. (M ± m),C57BL/6 mice; [10],21.7 ± 5.2 min
same,Narcotic effect in % from control,C57BL/6 mice; [10],45%
same,Narcosis duration min. (M ± m),C57BL/6 mice; [11],25.7 ± 4.9 min
same,Narcotic effect in % from control,C57BL/6 mice; [11],85%
same,Narcosis duration min. (M ± m),C57BL/6 mice; [12],41.2 ± 3.3 min
same,Narcotic effect in % from control,C57BL/6 mice; [12],95%
same,Narcosis duration min. (M ± m),C57BL/6 mice; [13],18.4 ± 1.5 min
same,Narcotic effect in % from control,C57BL/6 mice; [13],61%
same,Narcosis duration min. (M ± m),C57BL/6 mice; [14],30.9 ± 5.7 min
same,Narcotic effect in % from control,C57BL/6 mice; [14],100%
same,Narcosis duration min. (M ± m),C57BL/6 mice; [15],31.3 ± 4.9 min
same,Narcotic effect in % from control,C57BL/6 mice; [15],57%
same,"acute toxicity in mice, LD50",mice [5],7000 mg/kg
same,Narcosis duration Min (M ± m),mice [6]; [16],15.48 ± 4.93 min
same,Effect % (M ± m),mice [6]; [16],-74.01 ± 8.15%
same,Narcosis duration Min (M ± m),mice [6]; [17],8.72 ± 2.98 min
same,Effect % (M ± m),mice [6]; [17],-85.59 ± 4.92%
same,Narcosis duration Min (M ± m),mice [6]; [18],18.47 ± 4.82 min
same,Effect % (M ± m),mice [6]; [18],-69.47 ± 7.96%
same,shortening of the duration of hexobarbital-induced narcosis,mice [6]; average over all the doses investigated,~4 fold
N-acetyl-glucosaminyl-N-acetyl-muramyl-L-alanyl-D-glutamic acid [GMDPA],pyrogenicity,Pyrogenicity,substantially non-pyrogenic
same,inhibition of acetaldehyde narcosis,"inbred C57 B1/6 mice; acetaldehyde given 1, 4 or 8 days later",inhibition of narcosis occurred
same,inhibition of acetaldehyde narcosis,inbred C57 B1/6 mice; acetaldehyde given 12 days later,not 12
